The record followed here is patent US9133182B2, “Selective androgen receptor modulators” (Radius Health, Inc., priority 2010, dated 2015).

Bounds are passed on as bounds.

androgen receptor, sequence (P15207 651-902): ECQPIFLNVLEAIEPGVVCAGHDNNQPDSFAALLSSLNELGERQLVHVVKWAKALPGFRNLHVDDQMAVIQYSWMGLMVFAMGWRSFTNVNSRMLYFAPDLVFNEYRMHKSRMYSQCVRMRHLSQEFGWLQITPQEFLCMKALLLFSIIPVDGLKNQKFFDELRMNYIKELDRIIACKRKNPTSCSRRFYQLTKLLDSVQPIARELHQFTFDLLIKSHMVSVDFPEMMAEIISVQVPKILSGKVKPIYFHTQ

The target in the first experiment is androgen receptor (Rattus norvegicus (Rat), UniProt P15207). In words: androgen receptor binding assay (fluorescence polarization, Invitrogen). Particulars: AR-Fluormone complex, 4 h at room temperature; Table 1. The protocol:
The assay was performed as specified by the manufacturer (Invitrogen, Madison, Wis.). Briefly, 1 μl of 10 mM compound was added to 500 μl of AR screening buffer in a 1.5 ml eppendorf tube to make a 2×10^−5M stock. 10-fold serial dilutions of the test compounds were prepared ranging in concentration from 10^−5M to 10^−12M. Each dilution was added in triplicate to a black 384-microtiter plate. The test compounds will be diluted 2-fold in the final reaction. 2×AR-Fluormone™ complex was prepared with 2 nM Flourmone AL Green™ and 30 nM AR. 25 μl of 2×complex was aliquoted to each reaction well, such that the final reaction volume was 50 μl per well. Plate was sealed with a foil cover and incubated in the dark at room temperature for 4 h. Polarization values for each well were measured. The polarization values were plotted against the concentration of the test compound. […] As a control, a competition curve for R1881 (methyltrienolone) was performed for each assay.
(In fluorescence polarisation assays a small probe gives low polarisation when free and higher when bound to something large.)
`N#Cc1ccc(N2C(=O)CC[C@@H]2[C@H](O)C(F)(F)F)cc1C(F)(F)F` [Example 1, 4-((R)-2-oxo-5-((S)-2,2,2-trifluoro-1-hydroxyethyl)pyrrolidin-1-yl)-2-(trifluoromethyl)benzonitrile] yielded a half-inhibitory concentration (IC50) of 14 nM.

In the case of `N#Cc1ccc(N2C(=O)CC[C@@H]2[C@@H](O)C(F)(F)F)cc1C(F)(F)F` [Example 2, 4-((R)-2-oxo-5-((R)-2,2,2-trifluoro-1-hydroxyethyl)pyrrolidin-1-yl)-2-(trifluoromethyl)benzonitrile], the concentration for half-maximal inhibition (IC50) is 100 nM.

With `Cc1c(N2C(=O)CC[C@@H]2[C@H](O)C(F)(F)F)ccc(C#N)c1C(F)(F)F` [Example 3, 3-methyl-4-((R)-2-oxo-5-((S)-2,2,2-trifluoro-1-hydroxyethyl)pyrrolidin-1-yl)-2-(trifluoromethyl)benzonitrile], the half-inhibitory concentration (IC50) came to 11 nM.

`Cc1c(N2C(=O)CC[C@@H]2[C@@H](O)C(F)(F)F)ccc(C#N)c1C(F)(F)F` [Example 4, 3-methyl-4-((R)-2-oxo-5-((R)-2,2,2-trifluoro-1-hydroxyethyl)pyrrolidin-1-yl)-2-(trifluoromethyl)benzonitrile] showed a 50% inhibitory concentration (IC50) of 120 nM.

In the case of `O=C1CC[C@H]([C@H](O)C(F)(F)F)N1c1ccc2nnsc2c1` [Example 5, (R)-1-(Benzo[d][1,2,3]thiadiazol-6-yl)-5-((S)-2,2,2-trifluoro-1-hydroxyethyl)pyrrolidin-2-one], the IC50 worked out at 530 nM.

Consider `O=C1CC[C@H]([C@@H](O)C(F)(F)F)N1c1ccc2nnsc2c1` [Example 6, (R)-1-(Benzo[d][1,2,3]thiadiazol-6-yl)-5-((R)-2,2,2-trifluoro-1-hydroxyethyl)pyrrolidin-2-one], for which the “Binding IC50 (nM)” value is “No binding”.

As to `N#Cc1ccc(N2C(=O)OC[C@@H]2[C@H](O)C(F)(F)F)cc1C(F)(F)F` [Example 7, 4-((R)-2-oxo-4-((S)-2,2,2-trifluoro-1-hydroxyethyl)oxazolidin-3-yl)-2-(trifluoromethyl)benzonitrile], the half-maximal inhibitory concentration (IC50) came to 50 nM.

Consider `N#Cc1ccc(N2C(=O)OC[C@@H]2[C@@H](O)C(F)(F)F)cc1C(F)(F)F` [Example 8, 4-((R)-2-oxo-4-((R)-2,2,2-trifluoro-1-hydroxyethyl)oxazolidin-3-yl)-2-(trifluoromethyl)benzonitrile], for which the IC50 was more than 1000 nM.

On to `N#Cc1ccc(N2C(=O)OC[C@H]2[C@H](O)C(F)(F)F)cc1Cl` [Example 9, 2-chloro-4-((S)-2-oxo-4-((S)-2,2,2-trifluoro-1-hydroxyethyl)oxazolidin-3-yl)benzonitrile], for which the IC50 amounted to 45 nM.

In the case of `N#Cc1ccc(N2C(=O)OC[C@H]2[C@@H](O)C(F)(F)F)cc1Cl` [Example 10, 2-chloro-4-((S)-2-oxo-4-((R)-2,2,2-trifluoro-1-hydroxyethyl)oxazolidin-3-yl)benzonitrile], the IC50 is more than 1000 nM.

For the compound `Cc1c(N2C(=O)OC[C@@H]2[C@@H](O)C(F)(F)F)ccc(C#N)c1Cl` [Example 12, 2-chloro-3-methyl-4-((R)-2-oxo-4-((R)-2,2,2-trifluoro-1-hydroxyethyl)oxazolidin-3-yl)benzonitrile], the IC50 was found to be 933 nM.

The compound `Cc1c(N2C(=O)O[C@H](C)[C@@H]2[C@H](O)C(F)(F)F)ccc(C#N)c1Cl` [Example 15, 2-chloro-3-methyl-4-((4S,5R)-5-methyl-2-oxo-4-((S)-2,2,2-trifluoro-1-hydroxyethyl)oxazolidin-3-yl)benzonitrile] registered a concentration for half-maximal inhibition (IC50) of 200 nM.

`Cc1c(N2C(=O)O[C@H](C)[C@@H]2[C@@H](O)C(F)(F)F)ccc(C#N)c1Cl` [Example 16, 2-chloro-3-methyl-4-((4S,5R)-5-methyl-2-oxo-4-((R)-2,2,2-trifluoro-1-hydroxyethyl)oxazolidin-3-yl)benzonitrile] gave an IC50 of more than 1000 nM.

As to `Cc1c(N2C(=O)O[C@@H](C)[C@@H]2[C@@H](O)C(F)(F)F)ccc(C#N)c1Cl` [Example 18, 2-chloro-3-methyl-4-((4S,5S)-5-methyl-2-oxo-4-((R)-2,2,2-trifluoro-1-hydroxyethyl)oxazolidin-3-yl)benzonitrile], the IC50 came to 700 nM.

Compound `Cc1c(N2C(=O)O[C@@H](C)[C@@H]2[C@H](O)C(F)(F)F)ccc(C#N)c1C(F)(F)F` [Example 23, 3-methyl-4-((4S,5S)-5-methyl-2-oxo-4-((S)-2,2,2-trifluoro-1-hydroxyethyl)oxazolidin-3-yl)-2-(trifluoromethyl)benzonitrile] yielded an IC50 of 33 nM.

For `Cc1c(N2C(=O)O[C@@H](C)[C@@H]2[C@@H](O)C(F)(F)F)ccc(C#N)c1C(F)(F)F` [Example 24, 3-methyl-4-((4S,5S)-5-methyl-2-oxo-4-((R)-2,2,2-trifluoro-1-hydroxyethyl)oxazolidin-3-yl)-2-(trifluoromethyl)benzonitrile], the half-maximal inhibitory concentration (IC50) was more than 1000 nM.

Staying with this experiment, now noted: AR-Fluormone complex, 4 h at room temperature; Table 2.
In the case of `O=C1CC[C@H]([C@@H](O)C(F)(F)F)N1c1ccc(Cl)c(Cl)c1` [Example 28, (R)-1-(3,4-dichlorophenyl)-5-((R)-2,2,2-trifluoro-1-hydroxyethyl)pyrrolidin-2-one], the IC50 is more than 1000 nM.

The compound `N#Cc1ccc(N2C(=O)CC[C@@H]2[C@@H](O)C(F)(F)F)cc1Cl` [Example 33, 2-chloro-4-((R)-2-((R)-2,2,2-trifluoro-1-hydroxyethyl)-5-oxopyrrolidin-1-yl)benzonitrile] gave a concentration for half-maximal inhibition (IC50) of 65 nM.

In turn, `Cc1c(N2C(=O)O[C@H](C)[C@@H]2[C@H](O)C(F)(F)F)ccc(C#N)c1C(F)(F)F` [Example 34, 4-((4S,5R)-4-((S)-2,2,2-trifluoro-1-hydroxyethyl)-5-methyl-2-oxooxazolidin-3-yl)-2-(trifluoromethyl)-3-methylbenzonitrile] had a half-inhibitory concentration (IC50) of more than 1000 nM.

On to `Cc1c(N2C(=O)O[C@H](C)[C@@H]2[C@@H](O)C(F)(F)F)ccc(C#N)c1C(F)(F)F` [Example 35, 4-((4S,5R)-4-((R)-2,2,2-trifluoro-1-hydroxyethyl)-5-methyl-2-oxooxazolidin-3-yl)-2-(trifluoromethyl)-3-methylbenzonitrile], for which the IC50 is more than 10000 nM.

For `C[C@H]1OC(=O)N(c2ccc(C#N)c(C(F)(F)F)c2)[C@H]1[C@H](O)C(F)(F)F` [Example 36, 4-((4S,5R)-4-((S)-2,2,2-trifluoro-1-hydroxyethyl)-5-methyl-2-oxooxazolidin-3-yl)-2-(trifluoromethyl)benzonitrile], the IC50 was more than 1000 nM.

`C[C@H]1OC(=O)N(c2ccc(C#N)c(C(F)(F)F)c2)[C@H]1[C@@H](O)C(F)(F)F` [Example 37, 4-((4S,5R)-4-((R)-2,2,2-trifluoro-1-hydroxyethyl)-5-methyl-2-oxooxazolidin-3-yl)-2-(trifluoromethyl)benzonitrile] had a half-inhibitory concentration (IC50) of more than 1000 nM.

As for `C[C@H]1OC(=O)N(c2ccc(C#N)c(Cl)c2)[C@H]1[C@H](O)C(F)(F)F` [Example 38, 2-chloro-4-((4S,5R)-4-((S)-2,2,2-trifluoro-1-hydroxyethyl)-5-methyl-2-oxooxazolidin-3-yl)benzonitrile], the IC50 came to 150 nM.

As for `C[C@H]1OC(=O)N(c2ccc(C#N)c(Cl)c2)[C@H]1[C@@H](O)C(F)(F)F` [Example 39, 2-chloro-4-((4S,5R)-4-((R)-2,2,2-trifluoro-1-hydroxyethyl)-5-methyl-2-oxooxazolidin-3-yl)benzonitrile], the IC50 was found to be 550 nM.

A further experiment has as its system immature, castrated rat (levator ani and bulba cavernous, LABC). In words: In vivo rat Herschberger assay, LABC weight. Also on record: key: no = no activity observed at highest dose tested.; yes = increased LABC weight relative to castrated vehicle control. Particulars: once daily oral gavage for 4 days, maximum tested dose between 1 mg/kg and 30 mg/kg, Table 1. An excerpt: In Vivo Rat Model of Androgen and Anabolic Activity-Rat Herschberger Assay
The following is a typical procedure of the in vivo evaluation of the selective androgens of this invention. In particular, this assay looks primarily at the ability of the selective androgens of this invention to increase muscle size in an immature, castrated rat. In addition, androgenic effects are looked at primarily by weighing the prostate and seminal vesicles. Selective compounds will show a greater increase in the levator ani relative to the prostate and seminal vesicles when compared to testosterone treated, castrated animals or to intact animals that have not been treated. Immature Sprague Dawley male rats were obtained Charles River Laboratories (Stoneridge, N.Y.). All animals were maintained in a temperature and humidity controlled room with a 12 hr light: 12 hr dark cycle, with ad lib access to food (TD 291615, Teklad, Madison, Wis.) and water. Rats were anesthetized and orchidectomized (GDX) or sham surgery (SHAM) was performed. After a 7-day recovery period, the animals were randomized according to weight and assigned to treatment groups (n=5), SHAM, OVX+vehicle, OVX+Cpd treated. Testosterone propionate (TP 1 mg/kg in 5% DMSO/95% corn oil) was administered by once daily subcutaneous injections, while the compounds of the invention are dosed in vehicle (0.5% carboxymethylcellulose) was administered by once daily oral gavage. The rats were then dosed once daily for 4 days. All animals were euthanized via carbon dioxide inhalation 24 hs after the last dose. The prostate, seminal vesicle and levator ani and bulba cavernous (LABC) tissues were removed, weighed and recorded. An increase in mean LABC indicates anabolic activity for that particular compound with regard to oral dosing typically at a maximum tested dose of between 1 mg/kg and 30 mg/kg—see Table 1.
Take `N#Cc1ccc(N2C(=O)CC[C@@H]2[C@H](O)C(F)(F)F)cc1C(F)(F)F` [Example 1, 4-((R)-2-oxo-5-((S)-2,2,2-trifluoro-1-hydroxyethyl)pyrrolidin-1-yl)-2-(trifluoromethyl)benzonitrile]: the “Oral activity in Herscheberger assay on LABC weight” value (“Oral activity” for short) is listed as “yes”.

Consider `Cc1c(N2C(=O)CC[C@@H]2[C@H](O)C(F)(F)F)ccc(C#N)c1C(F)(F)F` [Example 3, 3-methyl-4-((R)-2-oxo-5-((S)-2,2,2-trifluoro-1-hydroxyethyl)pyrrolidin-1-yl)-2-(trifluoromethyl)benzonitrile], for which the “Oral activity” value was “yes”.

Take `N#Cc1ccc(N2C(=O)OC[C@@H]2[C@H](O)C(F)(F)F)cc1C(F)(F)F` [Example 7, 4-((R)-2-oxo-4-((S)-2,2,2-trifluoro-1-hydroxyethyl)oxazolidin-3-yl)-2-(trifluoromethyl)benzonitrile]: the “Oral activity” value is reported as “yes”.

Consider `N#Cc1ccc(N2C(=O)OC[C@H]2[C@H](O)C(F)(F)F)cc1Cl` [Example 9, 2-chloro-4-((S)-2-oxo-4-((S)-2,2,2-trifluoro-1-hydroxyethyl)oxazolidin-3-yl)benzonitrile], for which the “Oral activity” value is listed as “yes”.

As for `C[C@@H]1OC(=O)N(c2ccc(C#N)c(C(F)(F)F)c2)[C@H]1[C@H](O)C(F)(F)F` [Example 19, 4-((4S,5S)-5-methyl-2-oxo-4-((S)-2,2,2-trifluoro-1-hydroxyethyl)oxazolidin-3-yl)-2-(trifluoromethyl)benzonitrile], the “Oral activity” value is “yes”.

As to `C[C@@H]1OC(=O)N(c2ccc(C#N)c(C(F)(F)F)c2)[C@H]1[C@@H](O)C(F)(F)F` [Example 20, 4-((4S,5S)-5-methyl-2-oxo-4-((R)-2,2,2-trifluoro-1-hydroxyethyl)oxazolidin-3-yl)-2-(trifluoromethyl)benzonitrile], the “Oral activity” value is given as “yes”.

One may read the IC50 as the midpoint of a concentration-inhibition curve.
